Here are results for 10 molecules from patent publication US11149011B2, “Compounds and methods for IDO and TDO modulation, and indications therefor” (Plexxikon Inc., priority 2018, dated 2021).

The target in assay [1] is T1, IDO1 (Homo sapiens, UniProt P14902).
T1 construct: His tag (N); made in house; host or cells: E. coli
In words: IDO enzymatic assay. In kind it is biochemical. The following applies: geometric mean; read-out: IDO1 GMean: IC50 (μM) (Biochemical Assay). A digest of the protocol:
(§1)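 Kynurenine formed after TCA hydrolysis (30 min, 50 °C) was quantified relative to full-reaction and no-enzyme controls, and IC50s were fitted. TDO reactions used 1 nM enzyme with 350 μM Trp and 0.4 μM methylene blue for 70 min; IDO reactions used 6 nM enzyme, 10 μM Trp, 5 μM methylene blue for 20 min; both at pH 6.5, room temperature.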

Assay [2] concerns the target T2, TDO (Homo sapiens, UniProt P48775).
T2 construct: His tag (N); made in house; host or cells: E. coli
The assay is described as follows: TDO enzymatic assay. Particulars: geometric mean; read-out: TDO GMean: IC50 (μM) (Biochemical Assay). The procedure, abridged:
as §1

Assay [3] concerns the target T3, IDO1-expressing HEK293 cell clones (Homo sapiens, UniProt P14902).
T3 construct: expressed in transfected cells; host or cells: HEK293
The assay is described as follows: Cell based kynurenine assay, IDO1-expressing HEK293 cell clones. The following applies: HEK293 cells, 24 hours of incubation, geometric mean; read-out: HEK293 IDO1 Kynurenine GMean IC50 (μM) (Cellular Assay). A digest of the protocol: (§2)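 IC50s come from nonlinear regression of % inhibition of kynurenine in culture supernatant after 24 hours of compound exposure. Controls were 0.2% DMSO-treated cells and media alone. Cells were stable human IDO1- or TDO-expressing HEK293 clones (CMV promoter), plated at 2.5×10^4 per well.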

Assay [4] deals with T4, TDO-expressing HEK293 cell clones (Homo sapiens, UniProt P48775).
T4 construct: expressed in transfected cells; host or cells: HEK293
T4 sequence (P48775 whole entry): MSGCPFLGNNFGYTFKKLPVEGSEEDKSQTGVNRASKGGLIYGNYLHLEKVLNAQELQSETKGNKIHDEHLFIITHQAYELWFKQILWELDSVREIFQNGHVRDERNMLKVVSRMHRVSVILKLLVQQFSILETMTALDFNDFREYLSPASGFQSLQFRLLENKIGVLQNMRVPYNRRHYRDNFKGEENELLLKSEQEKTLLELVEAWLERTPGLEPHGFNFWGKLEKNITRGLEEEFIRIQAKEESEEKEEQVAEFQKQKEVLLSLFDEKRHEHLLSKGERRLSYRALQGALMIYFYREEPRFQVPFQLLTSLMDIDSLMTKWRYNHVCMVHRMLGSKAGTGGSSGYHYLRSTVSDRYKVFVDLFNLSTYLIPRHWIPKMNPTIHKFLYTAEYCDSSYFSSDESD
The assay is described as follows: Cell based kynurenine assay, TDO-expressing HEK293 cell clones. Particulars: HEK293 cells, 24 hours of incubation, geometric mean; read-out: HEK293 TDO Kynurenine GMean IC50 (μM) (Cellular Assay). The procedure, abridged: as §2

T1 sequence (P14902 whole entry): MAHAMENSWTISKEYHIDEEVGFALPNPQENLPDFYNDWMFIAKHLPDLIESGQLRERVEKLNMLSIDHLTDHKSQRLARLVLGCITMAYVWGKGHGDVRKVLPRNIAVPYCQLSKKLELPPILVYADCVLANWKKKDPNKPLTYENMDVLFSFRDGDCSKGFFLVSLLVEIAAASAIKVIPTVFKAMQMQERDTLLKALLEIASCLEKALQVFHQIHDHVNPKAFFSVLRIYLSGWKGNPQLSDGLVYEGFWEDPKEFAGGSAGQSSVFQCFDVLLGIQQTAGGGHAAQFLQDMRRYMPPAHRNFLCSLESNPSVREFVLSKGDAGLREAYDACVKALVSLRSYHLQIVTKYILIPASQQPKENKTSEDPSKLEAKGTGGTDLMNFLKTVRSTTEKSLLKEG
T3 sequence (P14902 whole entry): as above
T2 sequence (P48775 whole entry): as the sequence (P48775 whole entry) above

In the case of `CC(C)(C1CCN(C(=O)NOc2ccccc2)CC1)[C@H](O)c1cc(Cl)cc2cn[nH]c12` [Compound P-0066, (S)-4-(1-(5-chloro-1H-indazol-7-yl)-1-hydroxy-2-methylpropan-2-yl)-N-phenoxypiperidine-1-carboxamide], the IC50 in assay [1], in assay [2], in assay [3] and in assay [4] was 0.0001 to 10 µM throughout.
As to `C[C@H](NC(=O)N1CCC(C(C)(C)[C@H](O)c2cc(Cl)cc3cn[nH]c23)CC1)c1ccccn1` [Compound P-0021, 4-((S)-1-(5-chloro-1H-indazol-7-yl)-1-hydroxy-2-methylpropan-2-yl)-N-((S)-1-(pyridin-2-yl)ethyl)piperidine-1-carboxamide], the IC50 in assay [1], in assay [2], in assay [3] and in assay [4] was 0.0001 to 10 µM in each case.
Take `CN(C)CCONC(=O)N1CCC(C(C)(C)[C@H](O)c2cc(Cl)cc3cn[nH]c23)CC1` [Compound P-0063, (S)-4-(1-(5-chloro-1H-indazol-7-yl)-1-hydroxy-2-methylpropan-2-yl)-N-(2-(dimethylamino)ethoxy)piperidine-1-carboxamide]: the concentration for half-maximal inhibition (IC50) in assay [1], in assay [2], in assay [3] and in assay [4] was 0.0001 to 10 µM each time.
Take `COCCONC(=O)N1CCC(C(C)(C)[C@H](O)c2cc(Cl)cc3cn[nH]c23)CC1` [Compound P-0062, (S)-4-(1-(5-chloro-1H-indazol-7-yl)-1-hydroxy-2-methylpropan-2-yl)-N-(2-methoxyethoxy)piperidine-1-carboxamide]: the IC50 in assay [1], in assay [2], in assay [3] and in assay [4] was 0.0001 to 10 µM each time.
Turning to `CN(O)C(=O)N1CCC(C(C)(C)[C@H](O)c2cc(Cl)cc3cn[nH]c23)CC1` [Compound P-0129, (S)-4-(1-(5-chloro-1H-indazol-7-yl)-1-hydroxy-2-methylpropan-2-yl)-N-hydroxy-N-methylpiperidine-1-carboxamide], the IC50 in assay [1], in assay [2], in assay [3] and in assay [4] was 0.0001 to 10 µM each time.
As for `CC(C)(C1CCN(C(=O)CO)CC1)[C@@H](O)c1cc(Cl)cc2[nH]ncc12` [Compound P-0146, (R)-1-(4-(1-(6-chloro-1H-indazol-4-yl)-1-hydroxy-2-methylpropan-2-yl)piperidin-1-yl)-2-hydroxyethan-1-one], the IC50 (usually the midpoint of a concentration-inhibition curve) in assay [1] is 0.0001 to 10 µM; in assay [2], 0.0001 to 10 µM; in assay [3], > 10 µM; in assay [4], 0.0001 to 10 µM.
As for `O=C(NCCCF)N1CCC(C(F)(F)C(=O)c2c(F)c(Cl)cc3cn[nH]c23)CC1` [Compound P-0043, 4-(2-(5-chloro-6-fluoro-1H-indazol-7-yl)-1,1-difluoro-2-oxoethyl)-N-(3-fluoropropyl)piperidine-1-carboxamide], the IC50 is 0.0001 to 10 µM in assay [1], 0.0001 to 10 µM in assay [2], 0.0001 to 10 µM in assay [3] and > 10 µM in assay [4].
For `CCNC(=O)N1CCC(C(F)(F)C(=O)c2c(F)c(Cl)cc3cn[nH]c23)CC1` [Compound P-0035, 4-(2-(5-chloro-6-fluoro-1H-indazol-7-yl)-1,1-difluoro-2-oxoethyl)-N-ethylpiperidine-1-carboxamide], the IC50 in assay [1], in assay [2], in assay [3] and in assay [4] was 0.0001 to 10 µM throughout.
`CCCS(=O)(=O)N1CCC(C(C)(C)C(O)c2cc(Cl)cc3[nH]ncc23)CC1` (stereo not shown) [Compound P-0071]: the IC50 in assay [1], in assay [2], in assay [3] and in assay [4] was 0.0001 to 10 µM in each case.
Take `CS(=O)(=O)N1CCC2(CC1)CC(O)(c1c(F)c(Cl)cc3cn[nH]c13)C2` [Compound P-0136, 2-(5-chloro-6-fluoro-1H-indazol-7-yl)-7-(methylsulfonyl)-7-azaspiro[3.5]nonan-2-ol]: the IC50 in assay [1], in assay [2], in assay [3] and in assay [4] was 0.0001 to 10 µM in each case.
